Data as given in ChEMBL document CHEMBL1136837, “Unified QSAR approach to antimicrobials. 4. Multi-target QSAR modeling and comparative multi-distance study of the giant components of antiviral drug-drug complex networks” (Bioorg Med Chem, 2009).
pIC50: −log10 of the molar value.

What was measured:
Human alphaherpesvirus 1 = experiment: Antiviral activity against Herpes simplex virus 1; assay type: functional, organism-based
Human alphaherpesvirus 2 = experiment: Antiviral activity against Herpes simplex virus 2; assay type: functional, organism-based
[1] = system: Human immunodeficiency virus 1; experiment: Antiviral activity against HIV1; assay type: functional, organism-based
[2] = system: Human immunodeficiency virus 2; experiment: Antiviral activity against HIV2; assay type: functional, organism-based
Human betaherpesvirus 5 = experiment: Antiviral activity against Human cytomegalovirus; assay type: functional, organism-based; conditions: Human betaherpesvirus 5
Vaccinia virus = experiment: Antiviral activity against Vaccinia virus; assay type: functional, organism-based, Orthopoxvirus vaccinia; conditions: Orthopoxvirus vaccinia
Human alphaherpesvirus 3 = experiment: Antiviral activity against Varicella zoster virus; assay type: functional, organism-based
Hepatitis B virus = experiment: Antiviral activity against Hepatitis B virus; assay type: functional, organism-based
Human papillomavirus = experiment: Antiviral activity against Human papillomavirus; assay type: functional, organism-based
Cowpox virus = experiment: Antiviral activity against Cowpox virus; assay type: functional, organism-based
Hepatitis C virus = experiment: Antiviral activity against Hepatitis C virus; assay type: functional, organism-based, Hepacivirus hominis; conditions: Hepatitis C virus

Nc1nc(N)c(-c2ccccc2)c(OCCOCP(=O)(O)O)n1
pIC50 (Human alphaherpesvirus 1; Human alphaherpesvirus 1): 8.92 | pIC50 (Human alphaherpesvirus 2; Human alphaherpesvirus 2): 8.92 | pIC50 [1]: 9.52 | pIC50 [2]: 9.52 | pIC50 (Human betaherpesvirus 5): 9.82 | pIC50 (Vaccinia virus): 8.92 | pIC50 (Human alphaherpesvirus 3): 9.82

Cc1c(N)nc(N)n(CCOCP(=O)(O)O)c1=O
pIC50 (Human alphaherpesvirus 1; Human alphaherpesvirus 1): 8.92 | pIC50 (Human alphaherpesvirus 2; Human alphaherpesvirus 2): 9.92 | pIC50 [1]: 9.52 | pIC50 [2]: 9.52 | pIC50 (Vaccinia virus): 8.92

CN(C)c1cc(=O)n(CCOCP(=O)(O)O)c(N)n1
pIC50 [2]: 9.47

Nc1nc2c(ncn2/C=C2/CC2(F)CO)c(=O)[nH]1 (centres undefined)
pIC50 (Hepatitis B virus): 4.70 | pIC50 [1]: 4.00 | pIC50 (Human alphaherpesvirus 3): 4.10

O=C(O)CS(=O)(=O)c1ccc(-c2cccc(C(=O)N3CCOCC3)c2)cc1
pIC50 (Human papillomavirus): 4.66

CCOC(=O)C(C)NP1(=O)CO[C@@H](Cn2ccc(N)nc2=O)CO1 (some centres undefined)
pIC50 (Cowpox virus): 4.59 | pIC50 (Vaccinia virus): 4.82

Cc1cccc(CNC(=O)c2cccc(-c3ccc(S(=O)(=O)CC(=O)O)cc3)c2)c1
pIC50 (Human papillomavirus): 7.57

Nc1nc(N)n(CCOCP(=O)(O)O)c(=O)c1Cc1ccccc1
pIC50 (Human alphaherpesvirus 1; Human alphaherpesvirus 1): 8.92 | pIC50 (Human alphaherpesvirus 2; Human alphaherpesvirus 2): 8.92 | pIC50 [1]: 9.52 | pIC50 [2]: 9.52 | pIC50 (Human betaherpesvirus 5): 9.82 | pIC50 (Vaccinia virus): 8.92 | pIC50 (Human alphaherpesvirus 3): 9.82

O=c1[nH]c(=O)n([C@H]2C[C@H](O)[C@@H](CO)O2)cc1I [IDOXURIDINE]
pIC50 (Cowpox virus): 5.70 | pIC50 (Vaccinia virus): 5.22

Nc1nc(NCC(F)(F)F)c2ncn(CCOCP(=O)(O)O)c2n1
pIC50 (Cowpox virus): 3.57 | pIC50 (Vaccinia virus): 4.38

O=C(O)CS(=O)(=O)c1cccc(COc2ccccc2)c1
pIC50 (Human papillomavirus): 4.10

Nc1ncnc2c1ccn2[C@H]1C[C@H](OP(=O)(S)OC[C@H]2O[C@@H](n3cnc4c(N)ncnc43)C[C@@H]2O)[C@@H](CO)O1 (some centres undefined)
pIC50 (Hepatitis B virus): 6.52 | pIC50 (Hepatitis C virus): 6.00

N#CCc1c(N)nc(N)nc1OCCOCP(=O)(O)O
pIC50 (Human alphaherpesvirus 1; Human alphaherpesvirus 1): 8.92 | pIC50 (Human alphaherpesvirus 2; Human alphaherpesvirus 2): 8.92 | pIC50 [1]: 9.52 | pIC50 [2]: 9.52 | pIC50 (Human betaherpesvirus 5): 9.82 | pIC50 (Vaccinia virus): 8.92 | pIC50 (Human alphaherpesvirus 3): 9.96

Nc1ncnc2c1ncn2/C=C1/CC1(F)CO (centres undefined)
pIC50 (Hepatitis B virus): 4.70 | pIC50 [1]: 4.92 | pIC50 (Human alphaherpesvirus 3): 4.85

Nc1nc(N)c(CC(=O)O)c(OCCOCP(=O)(O)O)n1
pIC50 (Human alphaherpesvirus 1; Human alphaherpesvirus 1): 8.92 | pIC50 (Human alphaherpesvirus 2; Human alphaherpesvirus 2): 8.92 | pIC50 [1]: 9.52 | pIC50 [2]: 9.52 | pIC50 (Human betaherpesvirus 5): 9.82 | pIC50 (Vaccinia virus): 8.92 | pIC50 (Human alphaherpesvirus 3): 9.82

Nc1nc(N)n(CCOCP(=O)(O)O)c(=O)c1CC(=O)O
pIC50 (Human alphaherpesvirus 1; Human alphaherpesvirus 1): 8.92 | pIC50 (Human alphaherpesvirus 2; Human alphaherpesvirus 2): 8.92 | pIC50 [1]: 9.52 | pIC50 [2]: 9.52 | pIC50 (Human betaherpesvirus 5): 9.82 | pIC50 (Vaccinia virus): 8.92 | pIC50 (Human alphaherpesvirus 3): 9.82

C=CCNc1nc(N)nc2c1ncn2CCOCP(=O)(O)O
pIC50 (Cowpox virus): 3.94 | pIC50 (Vaccinia virus): 4.60

Nc1nc(NC2CC2)c2ncn(CCOCP(=O)(O)O)c2n1
pIC50 (Cowpox virus): 4.55

Cc1cc(OCCOCP(=O)(O)O)nc(N)n1
pIC50 [2]: 9.36

Cc1cn([C@H]2C[C@H](OP(=O)(S)OC[C@H]3O[C@@H](n4cnc5c(N)ncnc54)C[C@@H]3O)[C@@H](COP(=O)(S)O[C@H]3C[C@H](n4ccc(N)nc4=O)O[C@@H]3CO)O2)c(=O)[nH]c1=O (some centres undefined)
pIC50 (Hepatitis B virus): 5.68 | pIC50 (Hepatitis C virus): 6.00

O=C(O)CS(=O)(=O)c1ccc(-c2ccc(CC(=O)Nc3ccccc3)cc2)cc1
pIC50 (Human papillomavirus): 6.80

CS(=O)(=O)c1ccc(-c2ccccc2)cc1
pIC50 (Human papillomavirus): 4.10

Cc1cn([C@H]2C[C@H](N=[N+]=[N-])[C@@H](CO)O2)c(=O)[nH]c1=O [ZIDOVUDINE]
pIC50 [1]: 8.30 | pIC50 [2]: 8.30

CN(C(=O)c1ccc(-c2ccc(S(=O)(=O)CC(=O)O)cc2)cc1)c1ccccc1
pIC50 (Human papillomavirus): 5.32

Nc1nc(O)cc(OCCOCP(=O)(O)O)n1
pIC50 (Human alphaherpesvirus 1): 10.60 | pIC50 (Human alphaherpesvirus 1; Human alphaherpesvirus 1): 10.44 | pIC50 (Human alphaherpesvirus 2): 10.48 | pIC50 (Human alphaherpesvirus 2; Human alphaherpesvirus 2): 10.44 | pIC50 [2]: 7.52 | pIC50 (Human betaherpesvirus 5): 9.72 | pIC50 (Vaccinia virus): 9.74

O=C(O)CS(=O)(=O)c1ccc(-c2ccc(C(=O)N3CCCCC3)cc2)cc1
pIC50 (Human papillomavirus): 5.48

CCCCCCCCCCCCCCCCOCCCOP(=O)(O)CO[C@H](CO)Cn1ccc(N)nc1=O [BRINCIDOFOVIR]
pIC50 (Cowpox virus): 6.22

O=C(O)CS(=O)(=O)c1ccc(-c2ccc(C(=O)N(Cc3ccccc3)Cc3ccccc3)cc2)cc1
pIC50 (Human papillomavirus): 5.96

Nc1nc(N)n(CCOCP(=O)(O)O)c(=O)c1C1CC1
pIC50 (Human alphaherpesvirus 1; Human alphaherpesvirus 1): 8.92 | pIC50 (Human alphaherpesvirus 2; Human alphaherpesvirus 2): 9.92 | pIC50 [1]: 9.52 | pIC50 [2]: 9.52 | pIC50 (Human betaherpesvirus 5): 9.82 | pIC50 (Vaccinia virus): 8.92

NC(=O)CS(=O)(=O)c1ccc(-c2ccccc2)cc1
pIC50 (Human papillomavirus): 4.10

Nc1nc(Sc2ccc(Cl)cc2)c2ncn(CCOCP(=O)(OCC(F)(F)F)OCC(F)(F)F)c2n1
pIC50 (Hepatitis B virus): 6.92

O=C(O)CS(=O)(=O)c1ccc(-c2cccc(C(=O)NCc3cccc4ccccc34)c2)cc1
pIC50 (Human papillomavirus): 8.37

O=C(O)CS(=O)(=O)c1ccc(-c2ccc(C(=O)NCc3ccccc3)cc2)cc1
pIC50 (Human papillomavirus): 6.29

CC(C)c1ccc(Sc2nc(N)nc3c2ncn3CCOCP(=O)(OCC(F)(F)F)OCC(F)(F)F)cc1
pIC50 (Hepatitis B virus): 6.01

CC(C)OC(=O)C(C)NP(=O)(COCCn1cnc2c(NC3CC3)nc(N)nc21)Oc1ccccc1 (centres undefined)
pIC50 (Cowpox virus): 5.59

CC(C)COc1ccc(Sc2nc(N)nc3c2ncn3CCOCP(=O)(OCC(F)(F)F)OCC(F)(F)F)cc1
pIC50 (Hepatitis B virus): 6.08

Nc1nc(O)c2ncn(CCC(CO)CO)c2n1 [PENCICLOVIR]
pIC50 (Hepatitis B virus): 3.99

CC(C)(C(=O)O)S(=O)(=O)c1ccc(-c2ccccc2)cc1
pIC50 (Human papillomavirus): 4.10
